This is an account of results in US20060040917A1, “Benzoxazepine derivatives as selective estrogen receptor modulators” (priority 2004, published 2006).

Assay [1] has as its target T1, human estrogen receptor α (Homo sapiens, UniProt P03372).
T1 construct: purchased Panvera
T1 sequence (P03372 1-595): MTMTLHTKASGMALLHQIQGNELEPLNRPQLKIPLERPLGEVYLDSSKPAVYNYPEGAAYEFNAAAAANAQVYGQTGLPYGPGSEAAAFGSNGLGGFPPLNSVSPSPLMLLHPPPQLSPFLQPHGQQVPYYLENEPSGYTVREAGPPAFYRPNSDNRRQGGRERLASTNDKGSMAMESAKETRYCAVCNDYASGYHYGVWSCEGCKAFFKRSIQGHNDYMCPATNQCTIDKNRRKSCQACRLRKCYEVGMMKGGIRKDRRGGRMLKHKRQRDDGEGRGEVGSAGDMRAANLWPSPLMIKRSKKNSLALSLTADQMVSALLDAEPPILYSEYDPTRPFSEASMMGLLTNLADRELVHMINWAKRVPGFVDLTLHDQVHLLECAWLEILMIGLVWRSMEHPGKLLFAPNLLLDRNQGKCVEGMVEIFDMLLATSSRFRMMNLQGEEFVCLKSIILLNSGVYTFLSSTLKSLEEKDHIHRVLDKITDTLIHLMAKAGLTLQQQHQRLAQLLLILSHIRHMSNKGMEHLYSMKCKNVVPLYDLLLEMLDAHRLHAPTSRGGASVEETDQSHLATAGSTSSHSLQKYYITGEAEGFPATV
The assay can be described thus: Estrogen Receptor α Flash Plate Assay. The note with it: displacement of radio-labeled estrogen (0.5 nM), FlashPlate, 1 h room temperature; read-out: ERα Binding IC50. Here is the method:
Estrogen Receptor α Flash Plate Assay
This assay monitors binding of radio-labeled estrogen to the estrogen receptor. It is performed on a BioMek 2000 (Beckman). Plates are read in a scintillation counter (Packard TopCount), with decreased counts an indication of binding of a compound to the receptor. The assay was run according to the procedure described by Allan, et al., Anal. Biochem. (1999), 275(2), 243-247.
On day one, 100 μL of Estrogen Screening Buffer (ESB, Panvera) containing 5 mM dithiothreitol (DTT, Panvera), 0.5 μg mouse anti-estrogen receptor monoclonal antibody (SRA-1010, Stressgen) and 50 ng purified human estrogen receptor α (Panvera) were added to each well of a 96 well FlashPlate Plus plate crosslinked with goat anti-mouse antibodies (NEN Life Sciences). The plate was sealed and incubated at 4° C. overnight.
On day two, each well was washed three times with 200 μL PBS, pH 7.2, at room temperature. To each well was then added 98 μL radio-labeled estrogen (0.5 nM, which equals 6 nCi for a 120 Ci/mmol batch, Amersham), diluted in ESB and 5 mM dithiothreitol (DTT). To individual wells were then added 2.5 μL test compound diluted in 30% (v/v) dimethyl sulfoxide/50 mM HEPES, pH 7.5. The wells were mixed three times by aspiration, the plate sealed and incubated at room temperature for one hour. The wells were then counted for 1 min in a TopCount scintillation counter (Packard).
(§1) Representative compound of the present invention were tested according to the procedure described above for binding to the Estrogen Receptor a and Estrogen Receptor β, with results as listed in Table 6.

The target of the next assay is T2, hER-β (Homo sapiens, UniProt Q92731).
T2 construct: purchased Panvera
The assay can be described thus: Estrogen Receptor β Fluorescence Polarization Assay. The conditions noted are these: displacement of Fluormone ES2, fluorescence polarization, 1 h room temperature; read-out: ERβ Binding IC50.
Description: Estrogen Receptor β Fluorescence Polarization Assay
This assay monitors binding of a fluorescent analog of estrogen (Fluormone ES2, Panvera) to the estrogen receptor. Plates are read in a fluorometer that can be set to polarization mode. A decrease in […] relative to vehicle control is an indication of binding of a compound to the receptor.
It is crucial to avoid introduction of air bubbles into the reaction in each well of the 96 well plate throughout this procedure. (Bubbles on the surface of the reaction disrupt light flow, affecting the polarization reading.) However, it is also crucial to effectively mix the reaction components upon addition to the well.
On ice, a 2× standard mixture of Assay Buffer (Panvera), 10 nM DTT and 40 nM ES2 was prepared. On ice, a 2× reaction mixture of Assay Buffer (Panvera), and 20 nM hER-β (Panvera) and 40 nM ES2 was also prepared.
Dilutions of test compound were prepared in 30% (v/v) dimethyl sulfoxide/50 mM HEPES, pH 7.5. At this point, the dilutions were 40× the final required concentration.
The standard mixture at 50 μL was then added to each well. The reaction mixture at 48 μL was added to all wells. The compound dilution at 2.5 μL was added to the appropriate wells. The reaction mixtures were mixed using a manual pipette, a roll of aluminum foil adhesive cover was placed on the plate and the plate incubated at room temperature for 1 hour.
Each well on the plate was then read in an LjL Analyst with an excitation wavelength of […] and an emission wavelength of 538.
as §1

Bounds are passed on as bounds.

T2 sequence (Q92731 whole entry): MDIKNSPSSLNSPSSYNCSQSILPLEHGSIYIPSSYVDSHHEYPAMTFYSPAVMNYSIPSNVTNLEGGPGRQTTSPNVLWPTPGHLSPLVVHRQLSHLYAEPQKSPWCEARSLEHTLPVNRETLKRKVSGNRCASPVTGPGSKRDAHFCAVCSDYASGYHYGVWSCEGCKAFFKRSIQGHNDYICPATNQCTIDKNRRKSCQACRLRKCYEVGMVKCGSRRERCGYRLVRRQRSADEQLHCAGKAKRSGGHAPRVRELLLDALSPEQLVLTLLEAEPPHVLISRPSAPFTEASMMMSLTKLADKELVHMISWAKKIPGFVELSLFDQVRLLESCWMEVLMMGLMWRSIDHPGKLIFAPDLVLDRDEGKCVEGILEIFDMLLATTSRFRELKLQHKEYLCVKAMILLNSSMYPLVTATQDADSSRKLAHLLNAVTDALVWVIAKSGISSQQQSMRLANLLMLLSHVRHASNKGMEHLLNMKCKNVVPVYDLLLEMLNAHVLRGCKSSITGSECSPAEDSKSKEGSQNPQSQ

Regarding `COc1cccc(C2COc3cc(OC)ccc3N(C(=O)c3ccc(OCCN(C)C)cc3)C2)c1` (centres unmarked) [Compound 8], the figures for the IC50 (in assay [1]; on hER-β) were 2900 nM and above 100000 nM, respectively.

`CN(C)CCOc1ccc(C(=O)N2CC(c3cccc(O)c3)COc3cc(O)ccc32)cc1` (centres unmarked) [Compound 9]: the IC50 turned out to be 530 nM in assay [1] and 26000 nM on hER-β.

For `Oc1ccc(C2COc3cc(O)ccc3N(Cc3ccc(OCCN4CCCCC4)cc3)C2)cc1` (centres unmarked) [Compound 12, 7-(4-Hydroxy-phenyl)-9-[4-(2-piperidin-1-yl-ethoxy)-benzyl]-6,7,8,9-tetrahydro-5-oxa-9-aza-benzocyclohepten-3-ol], the results for the IC50 (in assay [1]; on hER-β) were 430 nM and 1100 nM, respectively.

With `O=C(c1cccc(OCCN2CCCCC2)c1)N1CC(c2cccc(O)c2)COc2cc(O)ccc21` (centres unmarked) [Compound 13, [3-Hydroxy-7-(3-hydroxy-phenyl)-7,8-dihydro-6H-5-oxa-9-aza-benzocyclohepten-9-yl]-[3-(2-piperidin-1-yl-ethoxy)-phenyl]-methanone], the values for the IC50 (in assay [1]; on hER-β) were 81 nM and 2600 nM, respectively.

On to `O=C(c1ccc(OCCCl)cc1)N1CC(c2cccc(O)c2)COc2cc(O)ccc21` (centres unmarked) [Compound 14], for which the IC50 in assay [1] came to 24 nM; at hER-β it was 1100 nM.

In the case of `CC(=O)Oc1cccc(C2COc3cc(OC(C)=O)ccc3N(C(=O)c3ccc(OCCCl)cc3)C2)c1` (centres unmarked) [Compound 15], the IC50 in assay [1] worked out at 100 nM; at hER-β, 2600 nM.

With `CC(=O)Oc1cccc(C2COc3cc(OC(C)=O)ccc3N(Cc3ccc(OCCN4CCCCC4)cc3)C2)c1` (centres unmarked) [Compound 16], the IC50 in assay [1] is 120 nM; at hER-β it was 670 nM.

As to `Oc1ccc(C2COc3cc(O)ccc3N(Cc3cccc(OCCCl)c3)C2)cc1` (centres unmarked) [Compound 18, 9-[3-(2-Chloro-ethoxy)-benzyl]-7-(4-hydroxy-phenyl)-6,7,8,9-tetrahydro-5-oxa-9-aza-benzocyclohepten-3-ol], the IC50 worked out at 66 nM in assay [1] and 88 nM at hER-β.

For the compound `COCOc1ccc(C2COc3cc(OCOC)ccc3N(Cc3cccc(OCCCl)c3)C2)cc1` (centres unmarked) [Compound 19, 9-[3-(2-Chloro-ethoxy)-benzyl]-3-methoxymethoxy-7-(4-methoxymethoxy-phenyl)-6,7,8,9-tetrahydro-5-oxa-9-aza-benzocycloheptene], the IC50 (in assay [1]; at hER-β) was above 1000 nM each time.

As to `COCOc1ccc(C2COc3cc(OCOC)ccc3N(Cc3cccc(OCCN4CCCCC4)c3)C2)cc1` (centres unmarked) [Compound 20, 3-Methoxymethoxy-7-(4-methoxymethoxy-phenyl)-9-[3-(2-piperidin-1-yl-ethoxy)-benzyl]-6,7,8,9-tetrahydro-5-oxa-9-aza-benzocycloheptene], the IC50 (in assay [1]; on hER-β) was above 1000 nM throughout.

For the compound `COCOc1ccc(C2COc3cc(OCOC)ccc3N(Cc3cccc(OCCN4CCOCC4)c3)C2)cc1` (centres unmarked) [Compound 21], the IC50 (in assay [1]; on hER-β) was above 1000 nM each time.

With `Oc1ccc(C2COc3cc(O)ccc3N(Cc3cccc(OCCN4CCCCC4)c3)C2)cc1` (centres unmarked) [Compound 22, 7-(4-Hydroxy-phenyl)-9-[3-(2-piperidin-1-yl-ethoxy)-benzyl]-6,7,8,9-tetrahydro-5-oxa-9-aza-benzocyclohepten-3-ol], the values for the half-maximal inhibitory concentration (IC50) (in assay [1]; at hER-β) were 52 nM and 560 nM, respectively.

Regarding `Oc1ccc(C2COc3cc(O)ccc3N(Cc3cccc(OCCN4CCOCC4)c3)C2)cc1` (centres unmarked) [Compound 23], the IC50 is 350 nM in assay [1] and 870 nM at hER-β.

On to `Oc1cccc(C2COc3cc(O)ccc3N(Cc3cccc(OCCCl)c3)C2)c1` (centres unmarked) [Compound 24], for which the IC50 came to 56 nM in assay [1] and 92 nM on hER-β.

Turning to `Oc1cccc(C2COc3cc(O)ccc3N(Cc3cccc(OCCN4CCCCC4)c3)C2)c1` (centres unmarked) [Compound 25], the values for the IC50 (in assay [1]; on hER-β) were 22 nM and 300 nM, respectively.

On to `CC(C)(C)C(=O)Oc1ccc(C2COc3cc(OC(=O)C(C)(C)C)ccc3N(Cc3cccc(OCCN4CCCCC4)c3)C2)cc1` (centres unmarked) [Compound 26], for which the half-maximal inhibitory concentration (IC50) (in assay [1]; at hER-β) was above 1000 nM in each case.
